Earlier results in patent US20230363334A1, “METHOD FOR INCREASING CONTENT AND GENE EXPRESSION OF AROMATIC SUBSTANCE IN FRUITS AND VEGETABLES BY USING HYDROGEN-RICH WATER” (NANJING AGRICULTURAL UNIVERSITY, priority 2020, published 2023).

Conditions: one atmosphere and 20° C.

[HH] [hydrogen]
Maximum concentration of hydrogen dissolved in water (saturation concentration): 1.6 ppm | Solubility of hydrogen (volumes of hydrogen per volume of water): 1.83%
